These are literature values, as cited in patent publication US20040092519A1, “New treatment for hot flashes” (priority 2002, published 2004).

The conditions of data set [1]: transdermal; some patients.
For data set [2] the following is noted: low doses; men and women.

Regarding `Clc1cccc(Cl)c1N=C1NCCN1` [clonidine], the side effects result in data set [1] was “drowsiness, fatigue, and symptoms of low blood pressure”.

Consider `CC(=O)O[C@]1(C(C)=O)CC[C@H]2[C@@H]3C=C(C)C4=CC(=O)CC[C@]4(C)[C@H]3CC[C@@]21C` [megestrol acetate], for which, in data set [2], the “frequency of hot flashes” value is “reduce the frequency of hot flashes”.
